We go through 26 compounds from patent US20260109707A1, “HETEROBIFUNCTIONAL COMPOUNDS AND METHODS OF TREATING DISEASE” (Halda Therapeutics OpCo. Inc., priority 2022, published 2026).

One assay concerns VCaP cells. Kind of assay: Cellular growth inhibition assay for VCaP cells (CellTiter-Glo, 72 hours). The class given is cell-based, human. Particulars: Homo sapiens, VCaP, 72 h. The method in brief: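 Luminescent viability signal after 72 h of compound exposure gave GI50 values by four-parameter nonlinear regression. Compounds were added in 0.5% DMSO to cells plated 24 h earlier at 5000/well in DMEM containing 10% FBS.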
(In general: In ATP-based viability assays light output follows the ATP content of the culture.)

In assay [1] the test system is T-Rex 293 cell line SC3 cells lacking increased expression of androgen receptor protein. Kind of assay: Cellular growth inhibition assay, T-Rex 293 SC3 cells without doxycycline (CellTiter-Glo, 72 hours). The class given is cell-based. The note with it: 72 h, T-Rex 293 cell line SC3 cells not exposed to doxycycline (lacking increased androgen receptor expression). The method in brief:
(§1)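 Doxycycline (10 ng/mL) was either included or omitted to toggle wild-type androgen receptor expression in SC3 cells, a T-Rex 293 clone, grown in stripped-serum, phenol red-free medium. After 72 hours with compound, viable cells were quantified by CellTiter-Glo 2.0.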

The test system of a further assay is T47D cells. Kind of assay: Cellular growth inhibition assay for T47D cells (CellTiter-Glo, 72 hours). The class given is cell-based, human. The note with it: Homo sapiens, T47D, 72 h, 72 hours treatment. The method in brief: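 Luminescence from CellTiter-Glo 2.0 after 72 h of compound exposure gives the viability signal. Cells grew in insulin-supplemented (0.2 units/mL) DMEM with 10% FBS and were treated one day after seeding at 0.5% DMSO. GI50 values come from four-parameter nonlinear regression.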

The test system of assay [2] is T-Rex 293 cell line SC3 cells having increased expression of androgen receptor protein due to exposure to doxycycline. In words: Cellular growth inhibition assay, T-Rex 293 SC3 cells with doxycycline (CellTiter-Glo, 72 hours). Particulars: 72 h, T-Rex 293 SC3 cells with increased androgen receptor expression due to doxycycline (10 ng/mL). The class given is cell-based. The method in brief: as §1

For the compound `Cc1sc2c(c1C)C(c1ccc(C[C@@H]3CC[C@]4(C3)CN(c3ccc(C(=O)N[C@H]5CC[C@H](Oc6ccc(C#N)c(Cl)c6)CC5)nn3)CCO4)cc1)=NC(Cc1ncco1)c1nnc(C)n1-2` (some centres unmarked) [I-288], the GI50 (in the assay with VCaP cells; in assay [1]; in the assay with T47D cells; in assay [2]) was < 500 nM throughout.

Consider `Cc1sc2c(c1C)C(c1ccc(CNC(=O)NCc3ccc(C(=O)N[C@H]4CC[C@H](Oc5ccc(C#N)c(Cl)c5)CC4)nn3)cc1)=N[C@@H](Cc1ncco1)c1nnc(C)n1-2` [I-289], for which the GI50 (as a rule, the concentration at which growth is held to half of that of the control) with VCaP cells is 1500 to 3000 nM; in assay [1], > 3000 nM; in the assay on T47D cells, 1500 to 3000 nM; in assay [2], < 500 nM.

As to `Cc1sc2c(c1C)C(c1ccc(C(=O)N3CCN(Cc4ccc(C(=O)N[C@H]5CC[C@H](Oc6ccc(C#N)c(Cl)c6)CC5)nn4)CC3)cc1)=N[C@@H](Cc1ncco1)c1nnc(C)n1-2` [I-290], the GI50 (in the assay on VCaP cells; in assay [1]; in the assay with T47D cells; in assay [2]) was > 3000 nM throughout.

Take `Cc1sc2c(c1C)C(c1ccc(C(=O)N3CCN(Cc4ccc(C(=O)N[C@H]5CC[C@H](Oc6ccc(C#N)c(Cl)c6)CC5)nn4)CC3)cc1)=N[C@H](Cc1ncco1)c1nnc(C)n1-2` [I-291]: the GI50 was > 3000 nM in the assay on VCaP cells, > 3000 nM in assay [1], > 3000 nM with T47D cells and < 500 nM in assay [2].

Take `Cc1sc2c(c1C)C(c1ccc(N3CCC(C(=O)NCc4ccc(C(=O)N[C@H]5CC[C@H](Oc6ccc(C#N)c(Cl)c6)CC5)nn4)CC3)cc1)=N[C@@H](Cc1ncco1)c1nnc(C)n1-2` [I-292]: the GI50 in the assay on VCaP cells is < 500 nM; in assay [1], 500 to 1500 nM; in the assay on T47D cells, < 500 nM; in assay [2] it was < 500 nM.

For `Cc1sc2c(c1C)C(c1ccc(CCNC(=O)NCc3ccc(C(=O)N[C@H]4CC[C@H](Oc5ccc(C#N)c(Cl)c5)CC4)nn3)cc1)=N[C@@H](Cc1ncco1)c1nnc(C)n1-2` [I-293], the GI50 was < 500 nM with VCaP cells, > 3000 nM in assay [1], 500 to 1500 nM in the assay with T47D cells and < 500 nM in assay [2].

On to `Cc1sc2c(c1C)C(c1ccc(N3CCC[C@H](C(=O)NCc4ccc(C(=O)N[C@H]5CC[C@H](Oc6ccc(C#N)c(Cl)c6)CC5)nn4)C3)cc1)=N[C@@H](Cc1ncco1)c1nnc(C)n1-2` [I-294], for which the GI50 is < 500 nM in the assay with VCaP cells, > 3000 nM in assay [1], < 500 nM in the assay on T47D cells and < 500 nM in assay [2].

As for `Cc1sc2c(c1C)C(c1ccc(N3CCC[C@H](C(=O)NCc4ccc(C(=O)N[C@H]5CC[C@H](Oc6ccc(C#N)c(Cl)c6)CC5)nn4)C3)cc1)=N[C@H](Cc1ncco1)c1nnc(C)n1-2` [I-295], the GI50 is > 3000 nM with VCaP cells, > 3000 nM in assay [1], 1500 to 3000 nM with T47D cells and 500 to 1500 nM in assay [2].

For the compound `Cc1sc2c(c1C)C(c1ccc([C@H]3CCCCN3C(=O)[C@H]3CCCN(c4ccc(C(=O)N[C@H]5CC[C@H](Oc6ccc(C#N)c(Cl)c6)CC5)nn4)C3)cc1)=N[C@@H](Cc1ncco1)c1nnc(C)n1-2` [I-296], the GI50 is < 500 nM in the assay on VCaP cells, > 3000 nM in assay [1], 500 to 1500 nM in the assay on T47D cells and < 500 nM in assay [2].

`Cc1sc2c(c1C)C(c1ccc([C@@H]3CCCCN3C(=O)[C@H]3CCCN(c4ccc(C(=O)N[C@H]5CC[C@H](Oc6ccc(C#N)c(Cl)c6)CC5)nn4)C3)cc1)=N[C@@H](Cc1ncco1)c1nnc(C)n1-2` [I-297]: the GI50 in the assay on VCaP cells was < 500 nM; in assay [1], > 3000 nM; in the assay with T47D cells it was 500 to 1500 nM; in assay [2], < 500 nM.

Turning to `Cc1sc2c(c1C)C(c1ccc(CN3CCO[C@@H](CNc4ccc(C(=O)N[C@H]5CC[C@H](Oc6ccc(C#N)c(Cl)c6)CC5)nn4)C3)cc1)=N[C@@H](Cc1ncco1)c1nnc(C)n1-2` [I-298], the GI50 (in the assay with VCaP cells; in assay [1]; with T47D cells; in assay [2]) was < 500 nM each time.

`Cc1sc2c(c1C)C(c1ccc(CN(C)C(=O)CN(C)c3ccc(C(=O)N[C@H]4CC[C@H](Oc5ccc(C#N)c(Cl)c5)CC4)nn3)cc1)=N[C@@H](Cc1ncco1)c1nnc(C)n1-2` [I-299]: the GI50 was < 500 nM with VCaP cells, > 3000 nM in assay [1], 1500 to 3000 nM in the assay on T47D cells and 1500 to 3000 nM in assay [2].

Regarding `Cc1sc2c(c1C)C(c1ccc(CNC(=O)Cc3ccc(C(=O)N[C@H]4CC[C@H](Oc5ccc(C#N)c(Cl)c5)CC4)nn3)cc1)=N[C@@H](Cc1ncco1)c1nnc(C)n1-2` [I-300], the GI50 is < 500 nM with VCaP cells, > 3000 nM in assay [1], 500 to 1500 nM with T47D cells and 500 to 1500 nM in assay [2].

With `Cc1sc2c(c1C)C(c1ccc(N3CCC[C@H](C(=O)N4CCC[C@H](c5ccc(C(=O)N[C@H]6CC[C@H](Oc7ccc(C#N)c(Cl)c7)CC6)nn5)C4)C3)cc1)=N[C@@H](Cc1ncco1)c1nnc(C)n1-2` [I-301], the GI50 (with VCaP cells; in assay [1]; in the assay with T47D cells; in assay [2]) was < 500 nM throughout.

As to `Cc1sc2c(c1C)C(c1ccc(N3CCC[C@H](C(=O)N4CCC[C@@H](c5ccc(C(=O)N[C@H]6CC[C@H](Oc7ccc(C#N)c(Cl)c7)CC6)nn5)C4)C3)cc1)=N[C@@H](Cc1ncco1)c1nnc(C)n1-2` [I-302], the GI50 in the assay with VCaP cells was 500 to 1500 nM; in assay [1], < 500 nM; with T47D cells, < 500 nM; in assay [2], < 500 nM.

On to `Cc1sc2c(c1C)C(c1ccc(N3CCC[C@H](C(=O)N4CCC[C@H](c5ccc(C(=O)N[C@H]6CC[C@H](Oc7ccc(C#N)c(Cl)c7)CC6)nn5)C4)C3)cc1)=N[C@H](Cc1ncco1)c1nnc(C)n1-2` [I-303], for which the GI50 (with VCaP cells; in assay [1]; with T47D cells; in assay [2]) was > 3000 nM each time.

Take `Cc1sc2c(c1C)C(c1ccc(N3CCC[C@H](C(=O)N4CCC[C@@H](c5ccc(C(=O)N[C@H]6CC[C@H](Oc7ccc(C#N)c(Cl)c7)CC6)nn5)C4)C3)cc1)=N[C@H](Cc1ncco1)c1nnc(C)n1-2` [I-304]: the GI50 (in the assay on VCaP cells; in assay [1]; with T47D cells; in assay [2]) was > 3000 nM each time.

On to `Cc1sc2c(c1C)C(c1ccc(CCCN(C)C(=O)c3ccc(C(=O)N[C@H]4CC[C@H](Oc5ccc(C#N)c(Cl)c5)CC4)nn3)cc1)=N[C@@H](Cc1ncco1)c1nnc(C)n1-2` [I-305], for which the GI50 (in the assay with VCaP cells; in assay [1]; in the assay on T47D cells; in assay [2]) was < 500 nM throughout.

Turning to `Cc1sc2c(c1C)C(c1ccc(C(=O)N3CCC(N(C)c4ccc(C(=O)N[C@H]5CC[C@H](Oc6ccc(C#N)c(Cl)c6)CC5)nn4)CC3)cc1)=N[C@@H](Cc1ncco1)c1nnc(C)n1-2` [I-306], the GI50 is > 3000 nM with VCaP cells, > 3000 nM in assay [1], 1500 to 3000 nM in the assay on T47D cells and > 3000 nM in assay [2].

Regarding `Cc1sc2c(c1C)C(c1ccc(C(=O)N3CCC(N(C)c4ccc(C(=O)N[C@H]5CC[C@H](Oc6ccc(C#N)c(Cl)c6)CC5)nn4)CC3)cc1)=N[C@H](Cc1ncco1)c1nnc(C)n1-2` [I-307], the GI50 was 1500 to 3000 nM in the assay on VCaP cells, 500 to 1500 nM in assay [1], 1500 to 3000 nM in the assay on T47D cells and < 500 nM in assay [2].

Consider `Cc1sc2c(c1C)C(c1ccc(CCC[C@@H]3CCCN(c4ccc(C(=O)N[C@H]5CC[C@H](Oc6ccc(C#N)c(Cl)c6)CC5)nn4)C3)cc1)=N[C@@H](C)c1nnc(C)n1-2` [I-308], for which the GI50 is < 500 nM in the assay on VCaP cells, > 3000 nM in assay [1], 500 to 1500 nM with T47D cells and < 500 nM in assay [2].

With `Cc1sc2c(c1C)C(c1ccc(OC[C@H]3C[C@@]4(CCCN(c5ccc(C(=O)N[C@H]6CC[C@H](Oc7ccc(C#N)c(Cl)c7)CC6)nn5)C4)C3)cc1)=N[C@@H](C)c1nnc(C)n1-2` [I-310], the GI50 was < 500 nM with VCaP cells, > 3000 nM in assay [1], 500 to 1500 nM in the assay on T47D cells and < 500 nM in assay [2].

As for `Cc1sc2c(c1C)C(c1ccc(C#CC3CC4(C3)CN(c3ccc(C(=O)N[C@H]5CC[C@H](Oc6ccc(C#N)c(Cl)c6)CC5)nn3)C4)cc1)=N[C@@H](C)c1nnc(C)n1-2` [I-311], the GI50 (with VCaP cells; in assay [1]; with T47D cells; in assay [2]) was < 500 nM throughout.

On to `Cc1sc2c(c1C)C(c1ccc(N(C)CC(=O)N3CCC(c4ccc(C(=O)N[C@H]5CC[C@H](Oc6ccc(C#N)c(Cl)c6)CC5)nn4)CC3)cc1)=N[C@@H](Cc1ncco1)c1nnc(C)n1-2` [I-312], for which the GI50 (in the assay with VCaP cells; in assay [1]; with T47D cells; in assay [2]) was > 3000 nM throughout.

Turning to `Cc1sc2c(c1C)C(c1ccc(N(C)CC(=O)N3CCC(c4ccc(C(=O)N[C@H]5CC[C@H](Oc6ccc(C#N)c(Cl)c6)CC5)nn4)CC3)cc1)=N[C@H](Cc1ncco1)c1nnc(C)n1-2` [I-313], the GI50 with VCaP cells was < 500 nM; in assay [1] it was > 3000 nM; in the assay on T47D cells it was 500 to 1500 nM; in assay [2], < 500 nM.

For the compound `Cc1sc2c(c1C)C(c1ccc(C(=O)N3CCN(CCc4ccc(C(=O)N[C@H]5CC[C@H](Oc6ccc(C#N)c(Cl)c6)CC5)nn4)CC3)cc1)=N[C@H](Cc1ncco1)c1nnc(C)n1-2` [I-314], the GI50 is 500 to 1500 nM with VCaP cells, > 3000 nM in assay [1], 1500 to 3000 nM in the assay on T47D cells and 500 to 1500 nM in assay [2].
